Results as given in ChEMBL document CHEMBL4828717, “Synthetic cajaninstilbene acid derivatives eradicate methicillin-resistant Staphylococcus aureus persisters and biofilms” (Eur J Med Chem, 2021).

How the values were obtained:
L02 = assay: Cytotoxicity against human L02 cells assessed as cell viability at 10 ug/ml measured after 24 hrs by MTT assay; type: cell-based; conditions: l02, 24 h, dose 10 µg/ml
Staphylococcus aureus [1] = assay: Antibacterial activity against methicillin resistant Staphylococcus aureus ATCC 52056 assessed as reduction in microbial growth after 16 to 18 hrs by microbroth dilution method; type: functional; conditions: time 16-18 hrs
Staphylococcus aureus [2] = assay: Antibacterial activity against methicillin resistant Staphylococcus aureus ATCC49025 assessed as reduction in microbial growth after 16 to 18 hrs by microbroth dilution method; type: functional; conditions: time 16-18 hrs
RAW264.7 = assay: Cytotoxicity against mouse RAW264.7 cells assessed as cell viability at 10 ug/ml measured after 24 hrs by MTT assay; type: cell-based; conditions: raw264.7, 24 h, dose 10 µg/ml
Staphylococcus aureus [3] = assay: Antibacterial activity against methicillin resistant Staphylococcus aureus ATCC48966 assessed as reduction in microbial growth after 16 to 18 hrs by microbroth dilution method; type: functional; conditions: time 16-18 hrs
Staphylococcus aureus [4] = assay: Antibacterial activity against methicillin resistant Staphylococcus aureus ATCC49008 assessed as reduction in microbial growth after 16 to 18 hrs by microbroth dilution method; type: functional; conditions: time 16-18 hrs
Pseudomonas aeruginosa = assay: Antibacterial activity against Pseudomonas aeruginosa ATCC27853 assessed as reduction in microbial growth after 16 to 18 hrs by microbroth dilution method; type: functional; conditions: time 16-18 hrs
Staphylococcus aureus [5] = assay: Antibacterial activity against Staphylococcus aureus ATCC 25923 assessed as reduction in microbial growth after 16 to 18 hrs by microbroth dilution method; type: functional; conditions: time 16-18 hrs
Enterococcus faecalis = assay: Antibacterial activity against Enterococcus faecalis ATCC29212 assessed as reduction in microbial growth after 16 to 18 hrs by microbroth dilution method; type: functional; conditions: ATCC 29212, time 16-18 hrs
Staphylococcus aureus [6] = assay: Antibacterial activity against methicillin resistant Staphylococcus aureus ATCC513045 assessed as reduction in microbial growth after 16 to 18 hrs by microbroth dilution method; type: functional; conditions: time 16-18 hrs
Staphylococcus aureus [7] = assay: Antibacterial activity against methicillin resistant Staphylococcus aureus ATCC515992 assessed as reduction in microbial growth after 16 to 18 hrs by microbroth dilution method; type: functional; conditions: time 16-18 hrs
Staphylococcus aureus [8] = assay: Antibacterial activity against methicillin resistant Staphylococcus aureus ATCC 43300 assessed as reduction in microbial growth after 16 to 18 hrs by microbroth dilution method; type: functional; conditions: time 16-18 hrs
Staphylococcus aureus [9] = assay: Antibacterial activity against methicillin resistant Staphylococcus aureus ATCC49800 assessed as reduction in microbial growth after 16 to 18 hrs by microbroth dilution method; type: functional; conditions: time 16-18 hrs
Staphylococcus aureus [10] = assay: Antibacterial activity against methicillin resistant Staphylococcus aureus ATCC 62202 assessed as reduction in microbial growth after 16 to 18 hrs by microbroth dilution method; type: functional; conditions: time 16-18 hrs
Staphylococcus aureus [11] = assay: Antibacterial activity against methicillin resistant Staphylococcus aureus ATCC48073 assessed as reduction in microbial growth after 16 to 18 hrs by microbroth dilution method; type: functional; conditions: time 16-18 hrs
Escherichia coli = assay: Antibacterial activity against Escherichia coli ATCC25922 assessed as reduction in microbial growth after 16 to 18 hrs by microbroth dilution method; type: functional; conditions: ATCC 25922, time 16-18 hrs
Staphylococcus aureus [12] = assay: Antibacterial activity against methicillin resistant Staphylococcus aureus ATCC48706 assessed as reduction in microbial growth after 16 to 18 hrs by microbroth dilution method; type: functional; conditions: time 16-18 hrs

SMILES | Activity (L02) | MIC (Staphylococcus aureus [1]) | MIC (Staphylococcus aureus [2]) | Activity (RAW264.7) | MIC (Staphylococcus aureus [3]) | MIC (Staphylococcus aureus [4]) | MIC (Pseudomonas aeruginosa) | MIC (Staphylococcus aureus [5]) | MIC (Enterococcus faecalis) | MIC (Staphylococcus aureus [6]) | MIC (Staphylococcus aureus [7]) | MIC (Staphylococcus aureus [8]) | MIC (Staphylococcus aureus [9]) | MIC (Staphylococcus aureus [10]) | MIC (Staphylococcus aureus [11]) | MIC (Escherichia coli) | MIC (Staphylococcus aureus [12])
CC(C)=CCc1c(OC2CCC2)cc(/C=C/c2ccc(F)cc2)c(C(=O)O)c1O | Toxic | 2 µg/mL | 2 µg/mL | Toxic | 2 µg/mL | 2 µg/mL | > 32 µg/mL | 2 µg/mL | > 32 µg/mL | 2 µg/mL | 4 µg/mL | 2 µg/mL | 2 µg/mL | 4 µg/mL | 2 µg/mL | > 32 µg/mL | 2 µg/mL
CCOc1cc(/C=C/c2ccc(C(F)(F)F)cc2)c(C(=O)O)c(O)c1CC=C(C)C | Toxic | 1 µg/mL | 2 µg/mL | Toxic | 2 µg/mL | 2 µg/mL | > 32 µg/mL | 2 µg/mL | > 32 µg/mL | 2 µg/mL | 2 µg/mL | 1 µg/mL | 2 µg/mL | 1 µg/mL | 2 µg/mL | > 32 µg/mL | 2 µg/mL
CCC(CC)Oc1cc(/C=C/c2ccc(C(F)(F)F)cc2)c(C(=O)O)c(O)c1CC=C(C)C | Toxic | 1 µg/mL | 2 µg/mL | Toxic | 2 µg/mL | 2 µg/mL | > 32 µg/mL | 1 µg/mL | > 32 µg/mL | 1 µg/mL | 2 µg/mL | 2 µg/mL | 2 µg/mL | 1 µg/mL | 2 µg/mL | > 32 µg/mL | 2 µg/mL
CC(C)=CCc1c(OCC(F)(F)F)cc(/C=C/c2ccc(C(F)(F)F)cc2)c(C(=O)O)c1O | Toxic | 2 µg/mL | 2 µg/mL | Toxic | 2 µg/mL | 2 µg/mL | > 32 µg/mL | 2 µg/mL | > 32 µg/mL | 2 µg/mL | 2 µg/mL | 2 µg/mL | 2 µg/mL | 2 µg/mL | 2 µg/mL | > 32 µg/mL | 2 µg/mL
CC(C)=CCc1c(OC2CCCCCC2)cc(/C=C/c2ccc(C(F)(F)F)cc2)c(C(=O)O)c1O | Toxic | 1 µg/mL | 4 µg/mL | Toxic | 4 µg/mL | 4 µg/mL | > 32 µg/mL | 4 µg/mL | > 32 µg/mL | 2 µg/mL | 4 µg/mL | 1 µg/mL | 4 µg/mL | 2 µg/mL | 4 µg/mL | > 32 µg/mL | 4 µg/mL
CC(C)=CCc1c(OCC(F)(F)F)cc(/C=C/c2ccc(F)cc2)c(C(=O)O)c1O | Toxic | 2 µg/mL | 4 µg/mL | Toxic | 4 µg/mL | 4 µg/mL | > 32 µg/mL | 4 µg/mL | > 32 µg/mL | 4 µg/mL | 4 µg/mL | 2 µg/mL | 4 µg/mL | 4 µg/mL | 4 µg/mL | > 32 µg/mL | 4 µg/mL
CC(C)=CCc1c(OC2CCCC2)cc(/C=C/c2ccc(F)cc2)c(C(=O)O)c1O | Toxic | 2 µg/mL | 4 µg/mL | Toxic | 4 µg/mL | 4 µg/mL | > 32 µg/mL | 2 µg/mL | > 32 µg/mL | 2 µg/mL | 2 µg/mL | 2 µg/mL | 4 µg/mL | 2 µg/mL | 4 µg/mL | > 32 µg/mL | 4 µg/mL
CC(C)=CCc1c(OC2CCCCCC2)cc(/C=C/c2ccc(F)cc2)c(C(=O)O)c1O | Toxic | 1 µg/mL | 2 µg/mL | Toxic | 2 µg/mL | 2 µg/mL | > 32 µg/mL | 2 µg/mL | > 32 µg/mL | 2 µg/mL | 2 µg/mL | 1 µg/mL | 4 µg/mL | 2 µg/mL | 2 µg/mL | > 32 µg/mL | 2 µg/mL
CC(C)=CCc1c(OCc2ccccc2)cc(/C=C/c2ccc(F)cc2)c(C(=O)O)c1O | Toxic | 4 µg/mL | 4 µg/mL | Toxic | 4 µg/mL | 4 µg/mL | > 32 µg/mL | 4 µg/mL | > 32 µg/mL | 4 µg/mL | 4 µg/mL | 32 µg/mL | 4 µg/mL | 4 µg/mL | 4 µg/mL | > 32 µg/mL | 4 µg/mL
CCC(CC)Oc1cc(/C=C/c2ccc(F)cc2)c(C(=O)O)c(O)c1CC=C(C)C | Toxic | 2 µg/mL | 2 µg/mL | Toxic | 2 µg/mL | 2 µg/mL | > 32 µg/mL | 2 µg/mL | > 32 µg/mL | 2 µg/mL | 4 µg/mL | 2 µg/mL | 2 µg/mL | 2 µg/mL | 4 µg/mL | > 32 µg/mL | 2 µg/mL
CC(C)=CCc1c(OCCCF)cc(/C=C/c2ccc(C(F)(F)F)cc2)c(C(=O)O)c1O | Toxic | 2 µg/mL | 4 µg/mL | Toxic | 4 µg/mL | 4 µg/mL | > 32 µg/mL | 2 µg/mL | > 32 µg/mL | 2 µg/mL | 4 µg/mL | 2 µg/mL | 4 µg/mL | 4 µg/mL | 4 µg/mL | > 32 µg/mL | 4 µg/mL
CCCC(CC)Oc1cc(/C=C/c2ccc(C(F)(F)F)cc2)c(C(=O)O)c(O)c1CC=C(C)C (configuration not stated) | Toxic | 2 µg/mL | 8 µg/mL | Toxic | 8 µg/mL | 8 µg/mL | > 32 µg/mL | 4 µg/mL | > 32 µg/mL | 2 µg/mL | 4 µg/mL | 2 µg/mL | 4 µg/mL | 2 µg/mL | 4 µg/mL | > 32 µg/mL | 4 µg/mL
CCC(C)Oc1cc(/C=C/c2ccc(C(F)(F)F)cc2)c(C(=O)O)c(O)c1CC=C(C)C (configuration not stated) | Toxic | 2 µg/mL | 2 µg/mL | Toxic | 2 µg/mL | 2 µg/mL | > 32 µg/mL | 2 µg/mL | > 32 µg/mL | 2 µg/mL | 2 µg/mL | 1 µg/mL | 2 µg/mL | 2 µg/mL | 2 µg/mL | > 32 µg/mL | 2 µg/mL
CC(C)=CCc1c(OCCCC(F)(F)F)cc(/C=C/c2ccc(F)cc2)c(C(=O)O)c1O | Toxic | 4 µg/mL | 4 µg/mL | Toxic | 4 µg/mL | 4 µg/mL | > 32 µg/mL | 4 µg/mL | > 32 µg/mL | 4 µg/mL | 4 µg/mL | 4 µg/mL | 4 µg/mL | 4 µg/mL | 4 µg/mL | > 32 µg/mL | 4 µg/mL
CC(C)=CCc1c(OCCCF)cc(/C=C/c2ccc(F)cc2)c(C(=O)O)c1O | Toxic | 2 µg/mL | 4 µg/mL | Toxic | 4 µg/mL | 4 µg/mL | > 32 µg/mL | 4 µg/mL | > 32 µg/mL | 4 µg/mL | 4 µg/mL | 4 µg/mL | 4 µg/mL | 4 µg/mL | 4 µg/mL | > 32 µg/mL | 4 µg/mL
CC(C)=CCc1c(OC2CCC2)cc(/C=C/c2ccc(C(F)(F)F)cc2)c(C(=O)O)c1O | Toxic | 1 µg/mL | 1 µg/mL | Toxic | 1 µg/mL | 1 µg/mL | > 32 µg/mL | 2 µg/mL | > 32 µg/mL | 1 µg/mL | 2 µg/mL | 1 µg/mL | 2 µg/mL | 1 µg/mL | 2 µg/mL | > 32 µg/mL | 1 µg/mL
